Reference: US8748423B2, “Compositions and methods for the prevention and treatment of cancer” (Kinex Pharmaceuticals, LLC, priority 2010, dated 2014)
“And” between values parts separate entries of the source, which are not always exact repeats. Equal entries are not always repeated. “Also recorded” adds a separate entry of the source.

Columns and labels:
GL261 glioma [1] = assay: re-challenge of long term survivor mice with s.c. GL261 cells; assay type: in vivo, C57BL/6 mice; conditions: 1×10^6 s.c. GL261 cells; mice cured by Compound 76
Text: FIG. 5 is a graph of re-challenge of Compound 76 treated long term survivor mice from FIG. 4B with 1×10^6 s.c. GL261 glioa cells. Age and litter matched controls were implanted.

survivin = assay: additional molecular studies, survivin
[2] = tested on: various brain tumor cell lines; assay: proliferation in various brain tumor cell lines; assay type: cell-based, human and mouse; conditions: all brain tumor cell lines evaluated
Procedure: Compound 76 is a synthetic, orally bioavailable, novel small molecule microtubule polymerization inhibitor with very high CNS penetration. The efficacy of Compound 76 as a novel anti-cancer agent is tested directly using mouse model of malignant glioma. Compound 76 is an orally administered tubulin polymerization inhibitor that binds to a novel site on heterodimeric tubulin, and to a novel conformation of the dimer. Compound 76 can inhibit Src signaling in tumors. Compound 76 has been evaluated in various brain tumor cell lines. […] When administered orally to mice at a dose of 10 mg/kg, the ratio of drug levels in the brain compared to plasma levels was 0.76, indicating excellent BBB penetration as in Example 1.
Compound 76 was evaluated in various human and mouse brain tumor cells derived from glioblastoma multiforme, astrocytoma and medulloblastoma. […] When administered to mice Compound 76 penetrated the brain by 76%, thereby successfully addressing the first major challenge in brain cancer drug discovery. Drugs which are used to treat brain tumors often penetrate only 20% or less.

GL261 glioma [3] = assay: GL261 intracerebral tumors in SCID mice; assay type: in vivo, B6.CB17-Prkdc^scid/SzJ mice
Text: FIGS. 4A-C are a series of graphs showing the survival of C57BL6 mice with intracerebral GL261 glioma implants. Mice received intracerebral implants of 1×10^5 GL261 cells by stereotactic injection at 2 mm lateral, 1 mm anterior to bregma at 3 mm depth. After 4 days mice began indicated regimen of oral Compound 76. […] Compound 76 extended median survival from 21 to 29 days (range). n=10. […] Compound 76 extended median survival >100 days (range), with up to 60% of drug treated mice experiencing complete tumor regression, n=10. Long term survivors were confirmed tumor free by high field MRI in FIG. 6. […] See high field MRI in FIG. 6
(§1) Compound 76 was also evaluated in the orthotropic GL261 glioma model in immune-competent, syngeneic C57BL/6 mice. Mice implanted intracerebrally with 1×10^5 GL261 cells treated with vehicle alone (saline) have a median survival time (MeST) of 21 days (range 18-28). Mice treated by oral Compound 76 (30 mg/kg, b.i.d.) have a MeST of 30.5 days ranging 23-32 days. In contrast, when Compound 76 is given orally at (30 mg/kg, s.i.d.) the MeST increases to over 120 days, with more than 60% of the treatment group still alive 12 months later (p<0.0001). […] Further experiments were performed using a SCID version of C57BL/6 mice (B6.CB17-Prkdc^scid/SzJ), a mouse model of B6 background, but is immune-compromised.
as §1, with “was” for “was also”

[4] = body weight in GL261 glioma survival study; assay type: in vivo, C57BL/6 mice
Procedure: The studies were conducted in C57BL/6 mice. GL261 glioma cells (1×10^5 in 5 μl DMEM) were implanted intracranial coordinates: bregma, lateral 2.0 mm, anterior 1.2 mm, 3.0 mm depth dura. Treatment was initiated 3 days post implantation.
FIGS. 2A-F show the weight gain in each of the C57BL/6 mice in the different treatment groups. The average weight at endpoint for each of the treatment groups is shown below in Table 12. FIG. 3 is a graph showing the average weights over a 40-day period for each of the treatment groups.

O=C(Cc1ccc(-c2ccc(N3CCOCC3)cc2)cn1)NCc1cccc(F)c1 [Compound 76]
second GL261 tumor challenge in long term survivors (GL261 glioma [1]): rejected the second GL261 tumor challenge; also recorded: rejected a second GL261 tumor implant challenge | effect on intracellular survivin (survivin): increased expression and altered the localization of intracellular survivin | GI50 [2]: < 55 nM | median survival time (MeST), range (GL261 glioma [3]): 29 to 75 days | tumor reoccurrence by MRI (GL261 glioma [3]; after drug was discontinued): tumor reoccurrence; also recorded: all proceeded to develop lethal GL261 gliomas | long term survivors (GL261 glioma [3]; oral 30 mg/kg once daily): no long term survivors | median survival time (MeST) (GL261 glioma [3]; oral 30 mg/kg once daily, 30 mg/kg): 29 days and 40 days | Average weight at endpoint ([4]; 15 mg/kg): 16.9 g | Average weight at endpoint ([4]; 30 mg/kg): 15.0 g
